Legend:
Type in all cases: cell-based, human
[1] = system: WNT-TCF targets; test: RT-qPCR gene expression in DLD1 cells
Method: (§1) RT-qPCR was performed as in Melotti et al. (2014, supra) using BioRad equipment and reagents. Cells cultured in nitro were treated with the desired concentration of drug in DMEM-F12 and reduced serum (2.5% FBS) for 16h, unless otherwise noted, and collected in Trizol (Sigma) before total RNA extraction and cDNA synthesis. Primers were as in Table 1. HPRT (gene encoding Hypoxanthine phosphoribosyltransferase 1) and βACTIN were used as housekeeping controls for normalization.
(§2) Primary colon cells CC14, CC36 and mCC11, colon cancer cell lines DLD1, HT29, Ls174T, melanoma cell line MeWo, glioblastoma cell lines U87 and U251, and the lung cancer cell line H358 were cultured in DMEM-F12 with 10% FBS under standard in nitro conditions.

[2] = system: WNT-TCF targets; test: RT-qPCR gene expression in HT29 cells; conditions: 16h, batch 3, vs DMSO=1
Method: as §1, §2

[3] = system: WNT-TCF targets; test: RT-qPCR gene expression in mCC11 primary colon cancer cells
Method: as §1, §2

[4] = system: WNT-TCF targets; test: RT-qPCR gene expression in U87 glioblastoma cells; conditions: 16h, batch 3, vs DMSO=1
Method: as §1, §2

[5] = system: TCF targets; test: Microarray transcriptome analysis in Ls174T cells; conditions: 16h
Method: Cells treated with compounds were collected in Trizol and RNA was harvested using standard protocols. Quality and quantity of RNA was checked using Nano Series (Agilent Technologies). Samples with a RNA Integrity Number (RIN) >9/10 were chosen and cDNA and cRNA samples were prepared using GeneChip IVT Express kit. Genechip hybridization was done using the same kit and applied to PrimeView U219 human array (Affymetrix) in the Genomic Platform at the Faculty of Medicine, University of Geneva.
To test the effects of CAP2 on the transcriptome in a genome-wide manner microarray analyses with Ls174T cells were performed as these have been previously used to determine the genome-wide changes driven by dnTCF activity (van der Flier et al., 2007, Gastroenterology, 132(2): 628-32), the genetic benchmark use here. Ls174T cells were treated with 5 µM CAP2 (batch 3) for 16h, and their transcriptome compared with that of controls treated with DMSO under the same conditions. This dose was chosen since it results in extended WNT-TCF target gene modulation (Table 6).

[6] = system: Epigenetic regulators; test: RT-qPCR of epigenetic regulators in MeWo cells; conditions: 0.5 µM
Method: as §1
(§3) The WNT-TCF-independent repressive activity of CAP2 on epigenetic regulators may be extrapolated to other cancer cells as it was also detected in HT29 and CC14 human colon cancer cells, in MeWo human melanoma cells as well as in U87 and U251 human glioma cells. In all these different human cancer cells, CAP2 (at 0.5 µM) modulated the expression of ZMYND8, SMARCAL1, TBLIXR1, SETD6 and TAF5Ls (Table 15).

[7] = system: Epigenetic regulators; test: RT-qPCR of epigenetic regulators in U87 cells; conditions: 0.5 µM
Method: as §1, §3

[8] = DLD1, 1.25µM, 16h, batch 3, vs DMSO=1
[9] = DLD1, 2.5µM, 16h, batch 3, vs DMSO=1
[10] = DLD1, 5µM, 16h, batch 3, vs DMSO=1
[11] = DLD1, 10µM, 16h, batch 3, vs DMSO=1
[12] = Table 7, DLD1, 1.25µM, vs DMSO=1
[13] = Table 7, DLD1, 2.5µM, vs DMSO=1
[14] = Table 11, head 'in vitro', DLD1, concentration not given
[15] = Table 13, DLD1 secondary 3D spheroids, pretreated 2.5µM
[16] = 1.25µM, 16h, batch 3, vs DMSO=1
[17] = Table 9, microarray, Ls174T, 5 µM (batch 3), vs DMSO
[18] = Table 10, Microarray, CAP2 5 µM
[19] = microarray, Ls174T, 5 µM, vs DMSO

Q: Which results are given for `CC1=C(C)C(=O)O[C@@H]([C@](C)(O)[C@]2(O)CC[C@@]3(O)[C@@H]4CC=C5CC=CC(=O)[C@]5(C)[C@H]4CC[C@]23C)C1` [CAP2]?
A: AXIN2 expression [1, 8]: 1.2; LGR5 expression [1, 8]: 1.6; AXIN2 expression [1, 9]: 0.2; LGR5 expression [1, 9]: 0.3; AXIN2 expression [1, 10]: 0.3; LGR5 expression [1, 10]: 0.1; AXIN2 expression [1, 11]: 0.1; LGR5 expression [1, 11]: 0.04; AXIN2 expression level as compared to control ([1]; DLD1, 2D culture, 2.5µm): 0.2; ASCL2 expression [1, 12]: 0.2; AXIN2 expression [1, 12]: 0.8; CDKN1A expression [1, 12]: 7.2; LEF1 expression [1, 12]: 0.4; LGR5 expression [1, 12]: 0.5; cMYC expression [1, 12]: 0.5; ASCL2 expression [1, 13]: 0.2; AXIN2 expression [1, 13]: 0.6; CDKN1A expression [1, 13]: 8.6; LEF1 expression [1, 13]: 0.3; LGR5 expression [1, 13]: 0.3; cMYC expression [1, 13]: 0.2; ASCL2 expression ([1]; Table 7, DLD1, 5µM, vs DMSO=1): 0.3; AXIN2 expression ([1]; Table 7, DLD1, 5µM, vs DMSO=1): 0.5; CDKN1A expression ([1]; Table 7, DLD1, 5µM, vs DMSO=1): 9.0; LEF1 expression ([1]; Table 7, DLD1, 5µM, vs DMSO=1): 0.1; LGR5 expression ([1]; Table 7, DLD1, 5µM, vs DMSO=1): 0.1; cMYC expression ([1]; Table 7, DLD1, 5µM, vs DMSO=1): 0.001; ASCL2 expression ([1]; Table 7, DLD1, 10µM, vs DMSO=1): 0.3; AXIN2 expression ([1]; Table 7, DLD1, 10µM, vs DMSO=1): 0.2; CDKN1A expression ([1]; Table 7, DLD1, 10µM, vs DMSO=1): 6.1; LEF1 expression ([1]; Table 7, DLD1, 10µM, vs DMSO=1): 0.1; LGR5 expression ([1]; Table 7, DLD1, 10µM, vs DMSO=1): 0.1; cMYC expression ([1]; Table 7, DLD1, 10µM, vs DMSO=1): 0.0002; ASCL2 expression [1, 14]: 0.3; AXIN2 expression [1, 14]: 0.5; LGR5 expression [1, 14]: 0.1; AXIN2 expression ([1]; Table 13, DLD1 2D, 2.5µM): 0.2; cMYC expression ([1]; Table 13, DLD1 2D, 2.5µM): 0.1; AXIN2 expression [1, 15]: 0.5; cMYC expression [1, 15]: 0.4; AXIN2 expression ([2]; 1.25µM): 0.8; LGR5 expression ([2]; 1.25µM): 0.8; AXIN2 expression ([2]; 2.5µM): 0.9; LGR5 expression ([2]; 2.5µM): 0.7; AXIN2 expression ([2]; 5µM): 0.8; LGR5 expression ([2]; 5µM): 0.3; AXIN2 expression ([2]; 10µM): 0.4; LGR5 expression ([2]; 10µM): 0.1; AXIN2 expression [3, 16]: 0.6; LGR5 expression [3, 16]: 0.8; AXIN2 expression ([3]; 2.5µM, 16h, batch 3, vs DMSO=1): 0.5; LGR5 expression ([3]; 2.5µM, 16h, batch 3, vs DMSO=1): 0.3; AXIN2 expression ([3]; 5µM, 16h, batch 3, vs DMSO=1): 0.3; LGR5 expression ([3]; 5µM, 16h, batch 3, vs DMSO=1): 0.1; AXIN2 expression ([3]; 10µM, 16h, batch 3, vs DMSO=1): 0.3; LGR5 expression ([3]; 10µM, 16h, batch 3, vs DMSO=1): 0.04; ASCL2 expression ([3]; Table 7, 1.25µM, vs DMSO=1): 0.3; AXIN2 expression ([3]; Table 7, 1.25µM, vs DMSO=1): 0.6; CDKN1A expression ([3]; Table 7, 1.25µM, vs DMSO=1): 1.4; LEF1 expression ([3]; Table 7, 1.25µM, vs DMSO=1): 0.3; LGR5 expression ([3]; Table 7, 1.25µM, vs DMSO=1): 0.8; cMYC expression ([3]; Table 7, 1.25µM, vs DMSO=1): 0.5; ASCL2 expression ([3]; Table 7, 2.5µM, vs DMSO=1): 0.2; AXIN2 expression ([3]; Table 7, 2.5µM, vs DMSO=1): 0.5; CDKN1A expression ([3]; Table 7, 2.5µM, vs DMSO=1): 2.7; LEF1 expression ([3]; Table 7, 2.5µM, vs DMSO=1): 0.4; LGR5 expression ([3]; Table 7, 2.5µM, vs DMSO=1): 0.3; cMYC expression ([3]; Table 7, 2.5µM, vs DMSO=1): 0.3; ASCL2 expression ([3]; Table 7, 5µM, vs DMSO=1): 0.1; AXIN2 expression ([3]; Table 7, 5µM, vs DMSO=1): 0.3; CDKN1A expression ([3]; Table 7, 5µM, vs DMSO=1): 6.5; LEF1 expression ([3]; Table 7, 5µM, vs DMSO=1): 0.5; LGR5 expression ([3]; Table 7, 5µM, vs DMSO=1): 0.1; cMYC expression ([3]; Table 7, 5µM, vs DMSO=1): 0.1; ASCL2 expression ([3]; Table 7, 10µM, vs DMSO=1): 0.02; AXIN2 expression ([3]; Table 7, 10µM, vs DMSO=1): 0.3; CDKN1A expression ([3]; Table 7, 10µM, vs DMSO=1): 5.3; LEF1 expression ([3]; Table 7, 10µM, vs DMSO=1): 0.6; LGR5 expression ([3]; Table 7, 10µM, vs DMSO=1): 0.04; cMYC expression ([3]; Table 7, 10µM, vs DMSO=1): 0.1; AXIN2 expression ([4]; 1.25µM): 0.7; LGR5 expression ([4]; 1.25µM): 0.3; AXIN2 expression ([4]; 2.5µM): 0.5; LGR5 expression ([4]; 2.5µM): 0.3; AXIN2 expression ([4]; 5µM): 0.5; LGR5 expression ([4]; 5µM): 0.2; AXIN2 expression ([4]; 10µM): 0.6; LGR5 expression ([4]; 10µM): 0.2; ASCL2 Fold change [5, 17]: -9; AXIN2 Fold change [5, 17]: -4; CDKN1A Fold change [5, 17]: 9; LGR5 Fold change [5, 17]: -15; cMYC Fold change [5, 17]: -10; ASCL2 Fold change, Ls174T cells [5, 18]: -9.1; AXIN2 Fold change, Ls174T cells [5, 18]: -4.1; LGR5 Fold change, Ls174T cells [5, 18]: -15.1; cMYC Fold change, Ls174T cells [5, 18]: -10.2; share of the 106-gene set of TCF targets repressed by 1.5-fold or more ([5]; microarray, Ls174T, 5 µM): 70%; downregulation of ASCL2 [5, 19]: 9 fold; downregulation of AXIN2 [5, 19]: 4 fold; downregulation of LGR5 [5, 19]: 15 fold; EED expression [6]: 0.5; SETD6 expression [6]: 1; SMARCAL1 expression [6]: 0.2; TAF5L expression [6]: 0.8; TBL1XR1 expression [6]: 0.2; ZMYND8 expression [6]: 0.1; EED expression [7]: 0.2; SETD6 expression [7]: 0.3; SMARCAL1 expression [7]: 0.2; TAF5L expression [7]: 0.5; TBL1XR1 expression [7]: 0.2; ZMYND8 expression [7]: 0.1
